The values below come from US12412916B2, “Fuel cell with polymer electrolyte membrane” (HYUNDAI MOTOR COMPANY, priority 2022, dated 2025).

The format of data set [1] is physicochemical. The procedure: The thermal stability was confirmed through thermogravimetric analysis (TGA), and specifically, each compound sample was put into a heating furnace of the thermogravimetric analyzer, and the temperature was elevated from room temperature to 120° C. at 20° C./min and maintained for 10 minutes, thereby removing the remaining water and performing stabilization. Thereafter, the weight change of the sample was measured while cooling to 60° C. at 20° C./min and heating from 60° C. to 800° C. at 10° C./min in a nitrogen atmosphere, and the results are shown in Table 1 below.

The format of data set [2] is physicochemical. Here is the method: The solubility of each compound sample was observed by dissolving the same amount in a total of six solvents, including water, dimethylacetamide (DMAc), methanol, ethanol, 1-propanol and 2-propanol, and the results are shown in Table 1 and FIG. 4. In the results, if the phase separation is not visible with the naked eye and the sample is dissolved well, it is indicated as ∘, and if the phase separation is visible or the sample is not dissolved, it is indicated as x.
The source holds these as a separate data set.

As for `CC(C)(C)c1cc(C(F)(F)C(F)(F)OC(F)(F)C(F)(F)S(=O)(=O)O)cc(C(C)(C)C)c1O` [Example 1, sodium 2-(2-(3,5-di-tert-butyl-4-oxidophenyl)-1,1,2,2-tetrafluoroethoxy)-1,1,2,2-tetrafluoroethanesulfonate], the “Thermal stability 5% decomposition temperature” value in data set [1] is 255 °C. Also, in data set [2], the “Solubility 1-propanol” value was “○”, the “Solubility 2-propanol” value is on record as “○”, the “Solubility DMAc” value was “○” and the “Solubility Ethanol” value is listed as “○”. For the same molecule, in data set [2], the “Solubility Methanol” value is “○” and the “Solubility in water (in words)” value was “not dissolved in water”.
